Assay results taken from patent publication US12390464B2, “Treatment of EGFR mutant-related cancers using a combination of EGFR and CDK4/6 inhibitors” (BETA PHARMA, INC., priority 2019, dated 2025).
Values joined by “and” are separate entries in the source; they are usually repeats but may differ in a detail not shown here. Equal values may be shown once.

Tests used:
[1] = tested on: MCF7 human breast cancer cell line; settings: cited from earlier work
[2] = tested on: HCC827 tumors (delE746-A750 activating mutation); assay: Antitumor activity in the HCC827 mouse xenograft model; type: in vivo; settings: oral QD; for Tumor Weight Inhibition Rate: tumors harvested day 35; for Tumor Weight: tumors harvested day 35, mean ± SD, n = 8
Method: Cell Culture and Implantation. HCC827 cells were cultured in a CO2 incubator in culture media containing modified RPMI (Hyclone, Cat: SH30809.01); 10% fetal bovine serum (Gibco, Cat: 10099-141); 100 U/ml penicillin and 100 μg/ml streptomycin (Hyclone, Cat: SV30010). Cells were digested with 0.25% trypsin (Hyclone, Cat: SH30042.01) and subcultured every four days. When the required cells was in the logarithmic growth phase, the cell counts were collected and the tumors were subcutaneously implanted in Balb/c nude female mice (14-19 g) at 1×10^7/0.2 mL/mouse (50% Matrigel CORNING, Cat: 354234) in the right back side of each mouse. 8 days after implantation, 56 mice with tumor volume of 132-289 mm^3 were selected and randomly divided into 7 groups according to tumor volume and body weight.
Test Sample Preparation Formulation and Administration. A stock solution of 1 as the methanesulfonate salt was prepared at 0.3 mg/mL in normal saline. A stock solution of 2 as the hydrochloride salt was prepared 2.0 mg/mL in sterile water. The vehicle control was a solution of 0.5% sodium carboxymethyl cellulose in sterile water. All stock solutions were stored at 2-8° C. and prepared fresh on a weekly basis. The stock solutions were administered orally either individually or in combination at the indicated salt dosages depicted in FIG. 1 and Table 2 once a day for 14 days. Dosing was suspended when body weight lost more than 15%.
Tumor Volume Determination and Data Analysis. The tumor volumes were determined twice per week by measuring the length and width of each tumor with a Vernier caliper and calculating the tumor volume. All tumors were harvested on day 35 and weighed. The Tumor Weight Inhibition Rate (IRTW%) was calculated via the equation: IRTW%=(1−(TW(treated)/TW(control)))×100%, where TW is defined as tumor weight. Histograms were generated using Prism GraphPad (mean±S.E.M.), and T analysis was used for statistical analysis. A p value less than 0.05 represents a significant difference between groups and a p value less than 0.01 represents a highly significant difference between groups.

[3] = tested on: kinase domain of the T790M double mutant; settings: cited from earlier work

SMILES	in vitro activity in MCF7 cell line [1]	Tumor Weight Inhibition Rate ([2]; 2 at 20 mg/kg alone) [%]	Tumor Weight ([2]; 2 at 20 mg/kg alone) [g]	inhibition of EGFR T790M double mutant kinase domain [3]	Tumor Weight ([2]; 1 at 3 mg/kg alone) [g]	Tumor Weight Inhibition Rate ([2]; 1 at 3 mg/kg alone, 3 mg/kg)
CCN1CCN(Cc2ccc(Nc3ncc(F)c(-c4ccc5nn(C)c(C(C)C)c5c4)n3)nc2)CC1 [Compound 2, N-[5-[(4-ethyl-1-piperazinyl)methyl]-2-pyridinyl]-5-fluoro-4-[2-methyl-3-(1-methylethyl)-2H-indazol-5-yl]-2-pyrimidinamine]	potent in vitro activity	30.2	0.5864 ± 0.2235	–	–	–
C=CC(=O)Nc1cc(Nc2nccc(-c3cn(C)c4ccccc34)n2)c(OC)cc1OCCN(C)C [Compound 1, N-[2-[2-(dimethylamino)ethoxy]-4-methoxy-5-[[4-(1-methyl-1H-indol-3-yl)-2-pyrimidinyl]amino]phenyl]-2-propenamide]	–	–	–	effectively inhibits	0.1423 ± 0.1152	83.1% and 83.1^f %
